Molecular target: T1, Nem1-Spo7 protein phosphatase complex (Saccharomyces cerevisiae, UniProt P38757)
T1 construct: Protein A-tagged Nem1 with Spo7, overexpressed in S. cerevisiae RS453, IgG-Sepharose purified, reconstituted into phospholipid vesicles
T1 sequence (P38757 1-446): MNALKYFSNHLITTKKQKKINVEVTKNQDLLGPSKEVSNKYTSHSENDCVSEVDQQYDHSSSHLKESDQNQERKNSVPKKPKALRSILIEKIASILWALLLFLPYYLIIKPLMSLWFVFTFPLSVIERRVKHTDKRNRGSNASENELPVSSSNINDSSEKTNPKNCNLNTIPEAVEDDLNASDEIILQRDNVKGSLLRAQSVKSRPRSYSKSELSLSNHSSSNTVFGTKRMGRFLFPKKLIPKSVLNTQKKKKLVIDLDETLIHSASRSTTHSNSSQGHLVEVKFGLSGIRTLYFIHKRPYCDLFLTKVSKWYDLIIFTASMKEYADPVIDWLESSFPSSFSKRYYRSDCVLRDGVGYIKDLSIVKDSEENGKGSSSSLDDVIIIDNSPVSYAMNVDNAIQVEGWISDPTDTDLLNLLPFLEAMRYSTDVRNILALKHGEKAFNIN
T1 sequence (P18410 1-259 partner): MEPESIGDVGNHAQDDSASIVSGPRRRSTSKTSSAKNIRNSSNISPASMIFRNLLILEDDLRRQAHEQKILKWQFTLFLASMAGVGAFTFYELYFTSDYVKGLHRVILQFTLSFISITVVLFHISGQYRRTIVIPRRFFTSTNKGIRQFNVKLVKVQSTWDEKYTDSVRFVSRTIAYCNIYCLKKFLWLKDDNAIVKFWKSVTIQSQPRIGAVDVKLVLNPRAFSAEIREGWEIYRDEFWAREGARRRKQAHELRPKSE
Experiment: release of […] from […]Pah1, proteoliposomes
Type: biochemical
Conditions: activator (cooperative), direct binding not shown, membrane effect possible; reconstituted in PC/PE/PI/PS vesicles; substrate Pah1 phosphorylated by Pho85-Pho80; 10 mM MgCl2, pH 5.0, 30 °C

CCCCCCCC/C=C\CCCCCCCC(=O)OC[C@H](COP(=O)(O)O)OC(=O)CCCCCCC/C=C\CCCCCCCC [PA]
fold stimulation at 10 mol %: 3.6 fold
